Experimental findings from ChEMBL document CHEMBL1201862, “PubChem BioAssay data set” (2004) are described below.

What all share (assay): growth of human tumour cells (NCI), 48 h
For test [1], the system named is CCRF-CEM.
Test [2] deals with SNB-75.
Test [3] deals with EKVX.
In test [4] the test system is KM12.
The subject of test [5] is OVCAR-5.
In test [6] the test system is SK-OV-3.
Test [7] deals with HCT-15.
Test [8] concerns HT-29.
The test system of test [9] is 786-0.
The test system of test [10] is SF-539.
Test [11] relates to HOP-92.
The test system of test [12] is TK-10.
The test system of test [13] is NCI-H522.
Test [14] concerns OVCAR-4.
Test [15] has as its system HOP-62.
The subject of test [16] is SNB-19.

The structures appear in SMILES notation.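 96-well plates; 48 h exposure; 5 concentrations. Endpoints by linear interpolation between flanking doses. Not reached: highest tested concentration assigned. GI50 is the concentration that inhibits growth by half.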 Calls of active or inactive are those of the source. Cut-off read from the data, not from the text of the source: active = GI50 up to about 1.1 µM and inactive = higher.

Take `O=C1CCCCC1C1(O)C(=O)Nc2cc(F)ccc21` (configuration not stated): the GI50 in test [1], in [2], in test [3], in test [4], in test [5] and in [6] was > 100 µM (inactive) in each case. Besides, the GI50 in [7] is greater than 100 µM; in test [8], > 100 µM (inactive); in test [9], > 100 µM (inactive); in [10], > 100 µM (inactive); in test [11], > 100 µM (inactive); in test [12] it was > 100 µM (inactive). Further, the GI50 in test [13], in [14], in test [15] and in test [16] was > 100 µM (inactive) in each case.

In the case of `CN(N=O)C(=O)ON1C(=O)CCC1=O`, the GI50 in test [1] is > 100 µM (inactive); in [2], 54.1 µM (inactive); in test [3], > 100 µM (inactive); in test [4], > 100 µM (inactive); in test [5], > 100 µM (inactive); in [6], > 100 µM (inactive). The GI50 in test [7] is greater than 100 µM; in test [8], > 100 µM (inactive); in test [9] it was > 100 µM (inactive); in test [10] it was > 100 µM (inactive); in test [11] it was > 100 µM (inactive); in test [12], > 100 µM (inactive). In addition, the GI50 in test [13], in [14], in test [15] and in test [16] was > 100 µM (inactive) in each case.

In the case of `NC1=NNC(=O)c2nnc3c(C(=O)O)cnn3c2S1`, the GI50 in test [1] was 10 µM (inactive); in test [2] it was 47.4 µM (inactive); in test [3], > 100 µM (inactive); in test [4], > 100 µM (inactive); in test [5], > 100 µM (inactive); in test [6], > 100 µM (inactive). The GI50 in test [8], in test [9], in test [10], in test [11], in test [12] and in test [13] was > 100 µM (inactive) throughout. Further, the GI50 in test [14], in [15] and in test [16] was > 100 µM (inactive) throughout.

In the case of `O=C1CC(S(=O)(=O)O)C=C1Nc1cccc(Cl)c1` (configuration not stated), the GI50 in test [1], in test [2], in test [3], in [4], in test [5] and in test [6] was > 100 µM (inactive) each time. Further, the GI50 in test [8], in test [9], in test [10], in test [11], in test [12] and in test [13] was > 100 µM (inactive) in each case. For the same molecule, the GI50 in test [14], in test [15] and in test [16] was > 100 µM (inactive) throughout.

In the case of `COc1ccc(NC(=O)CC(=O)N2N=C(N(CCC#N)c3cccc(C)c3)CC2c2ccccc2)cc1` (configuration not stated), the GI50 in test [1], in [2], in test [3], in test [4], in test [5] and in test [6] was > 100 µM (inactive) each time. Further, the GI50 in [7] is greater than 100 µM; in test [8], > 100 µM (inactive); in [9] it was > 100 µM (inactive); in [10], > 100 µM (inactive); in test [11], > 100 µM (inactive); in test [13], > 100 µM (inactive). In addition, the GI50 in test [14], in [15] and in [16] was > 100 µM (inactive) in each case.
